Test results: US8367696B2, “Aza-bridged-ring compound” (Astellas Pharma Inc., priority 2007, dated 2013)

biological target: muscarinic M3 receptor (Rattus norvegicus, UniProt P08483); assay: not given; settings: receptor binding antagonistic experiment, [3H]-N-methylscopolamine, rat membrane specimen, 25° C. 2 hours
Sequence (P08483 whole entry): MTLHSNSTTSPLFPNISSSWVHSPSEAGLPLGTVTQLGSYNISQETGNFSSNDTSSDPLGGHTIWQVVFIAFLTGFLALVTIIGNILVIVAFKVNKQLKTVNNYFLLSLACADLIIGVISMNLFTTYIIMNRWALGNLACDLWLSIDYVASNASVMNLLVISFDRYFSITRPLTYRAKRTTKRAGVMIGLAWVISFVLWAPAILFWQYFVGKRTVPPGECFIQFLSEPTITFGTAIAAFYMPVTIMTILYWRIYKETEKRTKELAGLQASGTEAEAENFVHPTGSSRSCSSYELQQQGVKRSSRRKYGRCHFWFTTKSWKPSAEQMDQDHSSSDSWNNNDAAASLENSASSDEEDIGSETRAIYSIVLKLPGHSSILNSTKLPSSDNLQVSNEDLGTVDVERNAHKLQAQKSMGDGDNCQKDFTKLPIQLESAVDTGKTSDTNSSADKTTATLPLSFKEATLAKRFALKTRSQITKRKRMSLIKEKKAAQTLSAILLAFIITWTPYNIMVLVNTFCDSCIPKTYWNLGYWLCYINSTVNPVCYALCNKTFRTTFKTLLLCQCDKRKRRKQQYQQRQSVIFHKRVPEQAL

Row | SMILES | Ki [nM]
1 | O=C(Nc1ncsc1-c1ccccc1)OC12CCN(CC1)CC2 [Example 95] | 0.2

system: carbachol-induced airway contraction; assay: Test of rat airway contraction (carbachol-induced rise in airway pressure); assay type: in vivo; settings: evaluation after 3 hours from oral administration, carbachol 30 μg/kg i.v.
Protocol: a. Test of Rat Airway Contraction
Male SD rats (250 to 400 g) were anesthetized by the intraperitoneal administration of pentobarbital sodium (Nembutal; 50 mg/kg), and the major airway was dissected. An airway cannula was intubated into the trachea, and the pressure in the airway was measured by a pressure transducer. After administration of pancuronium bromide (0.2 mg/kg, i.v.), a stable pressure in the airway was obtained before the experiment was initiated. For the experiment, by administration into the external maxillary vein/administration into the duodenum/oral administration/administration into the airway, physiological saline (in the case of oral administration/administration into the duodenum, distilled water) or a compound to be tested was administered, and after 5 to 30 minutes in the case of intravenous administration, after 0.25 to 6 hours in the case of oral administration into the duodenum, and after 0.25 to 72 hours in the case of administration into the airway, carbachol was intravenously administered at a dose (volume) of 30 μg/kg (1 mL/kg), and the pressures in the airway were then measured, respectively, for a period of 5 minutes. […]

Row | SMILES | ID50, carbachol-induced airway contraction inhibitory action [mg/kg]
2 | Cl.O=C(Nc1ncsc1-c1ccccc1)OCC12CCN(CC1)CC2 [Example 6, 1-azabicyclo[2.2.2]oct-4-ylmethyl(5-phenyl-1,3-thiazol-4-yl)carbamate hydrochloride] | 0.1
3 | O=C(Nc1ncsc1-c1ccccc1)OC12CCCN(CC1)CC2 [Example 14, 1-azabicyclo[3.2.2]non-5-yl(5-phenyl-1,3-thiazol-4-yl)carbamate] | 0.027
4 | Cl.O=C(Nc1ncsc1-c1ccccc1)OC1C2CC3CC1CN(C3)C2 (centres unmarked) [Example 110] | 0.41
5 | Cl.O=C(Nc1ccsc1-c1ccccc1)OCC1CN2CCC1CC2 (centres unmarked) [Example 136] | 0.68
6 | Cl.O=C(Nc1ncsc1-c1ccc(F)cc1)OC12CCN(CC1)CC2 [Example 156] | 0.091
7 | Cl.O=C(Nc1ncsc1-c1ccccc1)OCC1CN2CCCC1C2 (centres unmarked) [Example 264] | 0.21

same assay, conditions: evaluation after 24 hours from administration into the trachea of 0.5 μg/kg of a drug

Row | SMILES | Inhibition rate, carbachol-induced airway contraction inhibitory action [%]
8 | C[N+]12CCC(OC(=O)Nc3ncsc3-c3cccc(Cl)c3)(CC1)CC2 [Example 32] | 82
9 | O=C(Nc1ccsc1-c1ccccc1)OCC1C[N+]2(CCCc3ccccc3)CCC1CC2 (centres unmarked) [Example 43] | 64
10 | O=C(Nc1ncsc1-c1ccccc1)OC12CC[N+](CCOc3ccccc3)(CC1)CC2 [Example 46] | 90
11 | O=C(Nc1ncsc1-c1ccccc1)OC12CC[N+](CCc3ccccc3)(CC1)CC2 [Example 50] | 61
12 | C[N+]12CCC(OC(=O)Nc3ncsc3-c3cc(F)ccc3F)(CC1)CC2.[I-] [Example 57] | 64
13 | C[N+]12CCCC(OC(=O)Nc3ncsc3-c3ccccc3)(CC1)CC2.[I-] [Example 65] | 61
14 | O=C(Nc1ncsc1-c1cccc(Cl)c1)OC12CC[N+](CCOc3ccccc3)(CC1)CC2.[Br-] [Example 66] | 80
